Assay results taken from PubChem BioAssay (NCI).
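Interpolation was linear, between the two tested concentrations surrounding the appropriate level; five concentrations were tested over 48 hours in 96-well plates. At the TGI there is no net growth.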

Assays:
Assay in all cases: DTP human tumour cell line panel, 48 h
[1] = test system: SNB-75 CNS
[2] = test system: HOP-62 NSCLC
[3] = test system: UACC-62 melanoma
[4] = test system: MDA-MB-231 breast
[5] = test system: RPMI-8226 leukemia
[6] = test system: SN12C renal
[7] = test system: MDA-MB-435
[8] = test system: ACHN renal
[9] = test system: NCI-H460 lung
[10] = test system: IGROV1 ovarian
[11] = test system: UO-31 renal
[12] = test system: SR leukemia
[13] = test system: COLO 205 colon
[14] = test system: MCF7 breast
[15] = test system: SNB-19 CNS
[16] = test system: T-47D breast
[17] = test system: M14 melanoma
[18] = test system: DU-145 prostate
[19] = test system: BT-549 breast
[20] = test system: PC-3 prostate
[21] = test system: K-562 leukemia
[22] = test system: SK-MEL-2 melanoma
[23] = test system: RXF 393 renal
[24] = test system: TK-10 renal
[25] = test system: MDA-N
[26] = test system: MOLT-4 leukemia
[27] = test system: OVCAR-5 ovarian
[28] = test system: EKVX NSCLC
[29] = test system: HT29 colon
[30] = test system: A498 renal
[31] = test system: KM12 colon
[32] = test system: SK-OV-3 ovarian
[33] = test system: U251 CNS
[34] = test system: UACC-257 melanoma
[35] = test system: HCT-15 colon
[36] = test system: CAKI-1 renal
[37] = test system: OVCAR-8 ovarian
[38] = test system: OVCAR-3 ovarian
[39] = test system: MALME-3M melanoma
[40] = test system: NCI/ADR-RES ovarian
[41] = test system: HCT-116 colon
[42] = test system: CCRF-CEM leukemia
[43] = test system: SK-MEL-5 melanoma
[44] = test system: SK-MEL-28 melanoma
[45] = test system: 786-0 renal
[46] = test system: SF-539 CNS
[47] = test system: SF-268 CNS
[48] = test system: SW-620 colon
[49] = test system: HCC-2998 colon
[50] = test system: A549 NSCLC
[51] = test system: HOP-92 NSCLC
[52] = test system: NCI-H23 lung
[53] = test system: OVCAR-4 ovarian
[54] = test system: NCI-H226 lung
[55] = test system: LOX IMVI melanoma
[56] = test system: SF-295 CNS
[57] = test system: HL-60(TB) leukemia
[58] = test system: NCI-H522 lung

Measured: TGI

CNC(=O)C(C)C1C(=O)/C(=C(O)/C=C\C(C)=C\C(C)C2OC3(C)OC(C=CC34CO4)C2C)C(=O)N1C1CCC(O)C(C)O1 (stereo unspecified)
not listed: [51] | [52] | [53] | [54] | [55] | [56] | [57] | [58]
> 100 µM: all other assays above

CC(=NC1CCCCC1)c1ccccc1O
not listed: [38] | [49]
> 100 µM: all other assays above
